Data published in ChEMBL document CHEMBL5576145, “Domoic Acid as a Lead for the Discovery of the First Selective Ligand for Kainate Receptor Subtype 5 (GluK5)” (J Med Chem, 2024).

How the values were obtained:
[1] = target: Glutamate receptor ionotropic, kainate 1 (Rattus norvegicus) (UniProt P22756); assay: Displacement of [3H]-NF608 from rat GluK1 assessed as percent of radioligand binding at 10 uM relative to control
[2] = target: Glutamate receptor ionotropic, kainate 2 (Rattus norvegicus) (UniProt P42260); assay: Displacement of [3H]-KA from rat GluK2 assessed as percentage of radioligand binding at 10 uM relative to control
[3] = target: Glutamate receptor ionotropic, kainate 3 (Rattus norvegicus) (UniProt P42264); assay: Displacement of [3H]-KA from rat GluK3 assessed as percentage of radioligand binding at 10 uM relative to control
[4] = target: T1, Glutamate receptor ionotropic, kainate 5 (Mus musculus, UniProt Q61626); assay: Displacement of [3H]-kainate from mouse GluK5 expressed in Sf9 cell membrane incubated for 2 hrs by scintillation counting method; type: cell membranes
T1 sequence (Q61626 whole entry): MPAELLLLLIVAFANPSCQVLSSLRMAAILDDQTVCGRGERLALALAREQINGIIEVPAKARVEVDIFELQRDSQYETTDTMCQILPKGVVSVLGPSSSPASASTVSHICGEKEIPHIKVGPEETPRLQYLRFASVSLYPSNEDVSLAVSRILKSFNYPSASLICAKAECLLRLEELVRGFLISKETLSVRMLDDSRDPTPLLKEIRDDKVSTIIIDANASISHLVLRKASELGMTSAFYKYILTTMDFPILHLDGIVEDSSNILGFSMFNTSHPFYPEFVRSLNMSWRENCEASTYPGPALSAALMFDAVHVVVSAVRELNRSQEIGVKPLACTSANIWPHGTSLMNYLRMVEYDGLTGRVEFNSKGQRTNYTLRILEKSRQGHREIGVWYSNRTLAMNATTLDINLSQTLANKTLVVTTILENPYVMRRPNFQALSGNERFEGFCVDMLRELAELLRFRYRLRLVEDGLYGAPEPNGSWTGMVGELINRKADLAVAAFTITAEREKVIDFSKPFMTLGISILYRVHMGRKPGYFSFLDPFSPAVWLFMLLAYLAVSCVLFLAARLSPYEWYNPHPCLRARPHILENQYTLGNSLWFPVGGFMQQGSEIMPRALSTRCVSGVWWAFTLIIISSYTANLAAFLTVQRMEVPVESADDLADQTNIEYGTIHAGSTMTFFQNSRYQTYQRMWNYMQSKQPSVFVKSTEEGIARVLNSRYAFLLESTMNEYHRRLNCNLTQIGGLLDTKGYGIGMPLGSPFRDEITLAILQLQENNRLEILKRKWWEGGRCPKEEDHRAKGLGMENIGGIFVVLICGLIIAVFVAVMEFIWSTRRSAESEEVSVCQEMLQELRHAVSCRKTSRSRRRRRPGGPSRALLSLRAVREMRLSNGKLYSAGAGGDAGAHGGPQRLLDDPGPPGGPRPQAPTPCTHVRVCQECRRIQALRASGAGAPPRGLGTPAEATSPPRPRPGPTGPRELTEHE

[5] = target: T2, Glutamate receptor ionotropic, kainate 5 (Mus musculus) (UniProt Q61626); assay: Displacement of [3H]-kainate from mouse GluK5 expressed in Sf9 cell membrane assessed as remaining activity at 10 uM incubated for 2 hrs by scintillation counting method relative to control; type: cell membranes
T2 sequence (whole entry): T1 sequence (Q61626 whole entry)

Rattus norvegicus = species on record: Rattus norvegicus; assay: Displacement of [3H]-KA from KA in rat cortical synaptosomes assessed as remaining activity at 10 uM incubated for 60 mins by TopCount microplate scintillation counting method relative to control; type: subcellular; conditions: Cortex, Synaptosome
[6] = target: Glutamate NMDA receptor (Rattus norvegicus) (UniProt P35439+Q00959+Q00960+Q00961+Q62645+Q8VHN2+Q9R1M7); assay: Displacement of [3H]CGP39653 from NMDA receptor in rat cortical synaptosomes assessed as remaining activity at 10 uM incubated for 60 mins by Topcount microplate scintillation counting method relative to control; type: subcellular; conditions: Cortex, Synaptosome
[7] = target: Glutamate receptor 4 (Rattus norvegicus) (UniProt P19493); assay: Displacement of [3H]-AMPA from AMPA in rat cortical synaptosomes assessed as remaining activity at 10 uM incubated for 30 mins by TopCount microplate scintillation counting method relative to control; type: subcellular; conditions: Cortex, Synaptosome
Glutamate receptor 4 [8] = target: T3, Glutamate receptor 4 (Rattus norvegicus, UniProt P19493); assay: Displacement of [3H]-AMPA from AMPA in rat synaptic membrane; type: subcellular, Synaptosome
[9] = Displacement of [3H]-Kainic acid from KA in rat synaptic membrane; type: subcellular, Synaptosome
[10] = Displacement of [3H]-KA from KA in rat cortical synaptosomes incubated for 60 mins by TopCount microplate scintillation counting method; type: subcellular, Cortex, Synaptosome
[11] = target: Glutamate receptor ionotropic, kainate 2 (Rattus norvegicus, UniProt P42260); assay: Displacement of [3H]-KA from rat GluK2
[12] = target: Glutamate receptor ionotropic, kainate 1 (Rattus norvegicus, UniProt P22756); assay: Displacement of [3H]-NF608 from rat GluK1
[13] = target: Glutamate receptor ionotropic, kainate 3 (Rattus norvegicus, UniProt P42264); assay: Displacement of [3H]-KA from rat GluK3
[14] = Displacement of [3H]-Kainic acid from KA in rat brain membrane preincubated for 15 mins followed by [3H]-Kainic acid addition and measured after 1 hr by scintillation counting method; type: cell membranes
Glutamate receptor 4 [15] = target: T3, Glutamate receptor 4; assay: Displacement of [3H]-AMPA from AMPA in rat brain membrane preincubated for 15 mins followed by [3H]-AMPA addition and measured after 40 mins by scintillation counting method; type: cell membranes
Glutamate NMDA receptor = assay: Displacement of [3H]CGP39653 from NMDA receptor in rat cortical synaptosomes incubated for 60 mins by Topcount microplate scintillation counting method; type: subcellular, Cortex, Synaptosome
Glutamate receptor 4 [16] = target: T3, Glutamate receptor 4; assay: Displacement of [3H]-AMPA from AMPA in rat cortical synaptosomes incubated for 30 mins by TopCount microplate scintillation counting method; type: subcellular, Cortex, Synaptosome
[17] = Selectivity ratio of Ki for displacement of [3H]-KA from rat GluK3 to Ki for displacement of [3H]-kainate from mouse GluK5
[18] = Selectivity ratio of Ki for displacement of [3H]-KA from rat GluK2 to Ki for displacement of [3H]-kainate from mouse GluK5
[19] = Selectivity ratio of Ki for displacement of [3H]-NF608 from rat GluK1 to Ki for displacement of [3H]-kainate from mouse GluK5
[20] = Binding affinity to KA receptor in rat synaptosomes; type: subcellular, Synaptosome

Sequence of Glutamate receptor ionotropic, kainate 2 (P42260 whole entry): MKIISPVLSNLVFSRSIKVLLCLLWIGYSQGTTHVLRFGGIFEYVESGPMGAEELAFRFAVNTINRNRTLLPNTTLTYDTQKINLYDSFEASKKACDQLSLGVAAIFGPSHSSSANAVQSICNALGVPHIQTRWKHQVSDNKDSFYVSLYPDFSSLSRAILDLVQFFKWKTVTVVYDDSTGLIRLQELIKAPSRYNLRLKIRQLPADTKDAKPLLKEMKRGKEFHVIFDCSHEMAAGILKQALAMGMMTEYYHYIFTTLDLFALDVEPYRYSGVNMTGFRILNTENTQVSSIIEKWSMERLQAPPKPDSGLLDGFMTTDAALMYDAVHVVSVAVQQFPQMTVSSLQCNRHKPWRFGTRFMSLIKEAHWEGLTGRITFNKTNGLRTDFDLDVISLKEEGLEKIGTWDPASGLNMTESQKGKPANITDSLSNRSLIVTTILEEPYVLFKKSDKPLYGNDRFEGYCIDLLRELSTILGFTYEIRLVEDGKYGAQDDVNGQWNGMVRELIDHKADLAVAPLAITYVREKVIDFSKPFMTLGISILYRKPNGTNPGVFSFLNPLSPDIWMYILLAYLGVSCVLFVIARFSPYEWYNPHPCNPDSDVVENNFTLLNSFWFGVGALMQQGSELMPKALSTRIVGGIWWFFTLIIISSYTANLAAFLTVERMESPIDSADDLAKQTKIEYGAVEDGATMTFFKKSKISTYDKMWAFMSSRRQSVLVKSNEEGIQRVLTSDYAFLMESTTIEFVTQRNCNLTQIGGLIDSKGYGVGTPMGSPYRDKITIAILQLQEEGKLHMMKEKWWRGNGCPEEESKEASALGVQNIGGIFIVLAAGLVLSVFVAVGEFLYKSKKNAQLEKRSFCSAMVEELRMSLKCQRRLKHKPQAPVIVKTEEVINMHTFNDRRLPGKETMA
Sequence of Glutamate receptor ionotropic, kainate 2 (Rattus norvegicus) (P42260 whole entry): as above
Sequence of Glutamate receptor ionotropic, kainate 1 (Rattus norvegicus) (P22756 whole entry): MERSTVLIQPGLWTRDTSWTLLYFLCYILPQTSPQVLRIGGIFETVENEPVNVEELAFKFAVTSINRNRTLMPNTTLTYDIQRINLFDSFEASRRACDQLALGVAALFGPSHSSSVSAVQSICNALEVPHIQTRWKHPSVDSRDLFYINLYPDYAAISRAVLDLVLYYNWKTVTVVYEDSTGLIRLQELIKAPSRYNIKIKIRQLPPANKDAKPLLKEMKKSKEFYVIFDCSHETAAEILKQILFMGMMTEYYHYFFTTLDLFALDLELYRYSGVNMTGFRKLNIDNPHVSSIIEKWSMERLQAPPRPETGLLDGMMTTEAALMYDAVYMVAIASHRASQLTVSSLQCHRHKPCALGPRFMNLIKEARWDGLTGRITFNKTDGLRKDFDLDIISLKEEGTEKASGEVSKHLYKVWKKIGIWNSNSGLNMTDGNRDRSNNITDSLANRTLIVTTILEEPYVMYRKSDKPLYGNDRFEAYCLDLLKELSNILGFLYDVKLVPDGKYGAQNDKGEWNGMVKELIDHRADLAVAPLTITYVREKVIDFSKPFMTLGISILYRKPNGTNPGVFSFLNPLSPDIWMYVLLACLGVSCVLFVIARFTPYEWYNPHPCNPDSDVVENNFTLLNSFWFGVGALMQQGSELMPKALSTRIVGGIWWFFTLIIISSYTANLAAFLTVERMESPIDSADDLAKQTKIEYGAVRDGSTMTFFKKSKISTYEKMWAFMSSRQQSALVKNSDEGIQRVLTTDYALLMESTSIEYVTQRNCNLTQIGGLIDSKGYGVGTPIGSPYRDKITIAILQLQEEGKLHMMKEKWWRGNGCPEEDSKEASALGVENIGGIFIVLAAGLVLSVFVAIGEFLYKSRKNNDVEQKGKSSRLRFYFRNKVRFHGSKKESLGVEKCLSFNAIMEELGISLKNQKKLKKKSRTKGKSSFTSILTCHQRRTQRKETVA
Sequence of Glutamate receptor ionotropic, kainate 1 (P22756 whole entry): as above
Sequence of Glutamate receptor ionotropic, kainate 3 (P42264 whole entry): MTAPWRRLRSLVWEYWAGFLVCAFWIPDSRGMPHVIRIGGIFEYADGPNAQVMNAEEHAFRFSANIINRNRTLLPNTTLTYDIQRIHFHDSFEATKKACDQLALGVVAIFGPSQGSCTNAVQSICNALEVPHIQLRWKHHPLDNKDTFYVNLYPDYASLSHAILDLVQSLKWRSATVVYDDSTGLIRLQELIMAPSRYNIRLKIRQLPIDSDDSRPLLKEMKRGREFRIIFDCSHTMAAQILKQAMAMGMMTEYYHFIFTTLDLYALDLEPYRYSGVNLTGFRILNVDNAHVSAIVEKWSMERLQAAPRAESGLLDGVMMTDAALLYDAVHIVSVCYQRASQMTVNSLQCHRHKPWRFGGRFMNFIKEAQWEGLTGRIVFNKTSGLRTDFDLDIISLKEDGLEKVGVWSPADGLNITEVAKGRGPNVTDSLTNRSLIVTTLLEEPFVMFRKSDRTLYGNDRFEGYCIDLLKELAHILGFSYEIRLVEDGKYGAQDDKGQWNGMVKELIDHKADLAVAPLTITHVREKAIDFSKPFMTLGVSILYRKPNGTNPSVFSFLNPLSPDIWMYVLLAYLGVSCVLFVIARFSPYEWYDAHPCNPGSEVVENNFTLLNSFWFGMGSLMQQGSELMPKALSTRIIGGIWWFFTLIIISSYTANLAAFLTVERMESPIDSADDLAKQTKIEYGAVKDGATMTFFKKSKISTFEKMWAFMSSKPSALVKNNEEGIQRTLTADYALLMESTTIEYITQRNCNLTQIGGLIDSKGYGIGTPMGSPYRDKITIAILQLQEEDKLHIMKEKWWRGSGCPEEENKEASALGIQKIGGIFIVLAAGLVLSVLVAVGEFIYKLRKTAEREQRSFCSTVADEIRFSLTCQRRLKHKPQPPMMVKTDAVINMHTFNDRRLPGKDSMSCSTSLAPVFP
Sequence of Glutamate receptor ionotropic, kainate 3 (Rattus norvegicus) (P42264 whole entry): as above
T3 sequence (P19493 whole entry): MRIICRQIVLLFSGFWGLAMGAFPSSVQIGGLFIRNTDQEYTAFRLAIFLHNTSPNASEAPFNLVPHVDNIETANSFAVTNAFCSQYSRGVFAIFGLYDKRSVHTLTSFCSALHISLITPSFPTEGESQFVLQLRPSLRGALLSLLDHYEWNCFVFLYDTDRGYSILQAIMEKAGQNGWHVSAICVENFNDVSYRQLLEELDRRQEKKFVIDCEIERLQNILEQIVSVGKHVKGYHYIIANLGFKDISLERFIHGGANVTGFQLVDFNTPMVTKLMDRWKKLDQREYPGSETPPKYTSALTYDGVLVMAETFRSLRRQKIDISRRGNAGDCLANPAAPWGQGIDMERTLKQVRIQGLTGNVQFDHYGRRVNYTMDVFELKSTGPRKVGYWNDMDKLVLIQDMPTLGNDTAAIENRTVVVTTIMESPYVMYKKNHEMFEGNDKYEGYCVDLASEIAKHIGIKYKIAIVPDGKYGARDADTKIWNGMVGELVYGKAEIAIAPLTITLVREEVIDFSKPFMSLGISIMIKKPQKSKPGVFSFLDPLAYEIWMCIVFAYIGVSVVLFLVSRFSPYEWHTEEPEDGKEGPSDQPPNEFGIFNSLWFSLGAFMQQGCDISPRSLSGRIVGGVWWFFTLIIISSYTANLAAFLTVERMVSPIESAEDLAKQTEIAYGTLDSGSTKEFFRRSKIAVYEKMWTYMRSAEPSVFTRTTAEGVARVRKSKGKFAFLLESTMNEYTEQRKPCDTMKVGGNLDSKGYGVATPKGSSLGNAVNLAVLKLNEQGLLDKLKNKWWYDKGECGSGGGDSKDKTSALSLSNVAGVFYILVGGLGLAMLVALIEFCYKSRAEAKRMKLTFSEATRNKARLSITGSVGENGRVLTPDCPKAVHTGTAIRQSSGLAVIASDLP
Sequence of Glutamate receptor 4 (Rattus norvegicus) (P19493 whole entry): as above

Structure (SMILES) | Activity [1] [%] | Activity [2] [%] | Activity [3] [%] | Ki [4] [µM] | Activity [6] [%] | Activity [7] [%] | IC50 [10] [µM] | also measured
CCc1ccc(-c2cnnn2[C@H]2CN[C@H](C(=O)O)[C@H]2CC(=O)O)cc1 | 95 | 92 | 83 | – | – | – | – | Activity [5]: 45%
O=C(O)C[C@@H]1[C@@H](C(=O)O)NC[C@@H]1c1ccccc1O | – | – | – | – | – | – | – | IC50 (Glutamate receptor 4 [8]): 0.13 µM; IC50 [9]: 0.058 µM
O=C(O)CCCc1cnnn1[C@H]1CN[C@H](C(=O)O)[C@H]1CC(=O)O | – | – | – | 0.483 | 90 | 86 | 2.3 | Ki [11]: 7.79 µM; Ki [12]: 10.8 µM; Ki [13]: 6.1 µM
C/C(=C\C=C\[C@@H](C)C(=O)O)[C@H]1CN[C@H](C(=O)O)[C@H]1CC(=O)O [DOMORIC ACID] | – | – | – | – | – | – | – | IC50 [14]: 0.94 µM; IC50 (Glutamate receptor 4 [15]): 12 µM
O=C(O)C[C@@H]1[C@@H](C(=O)O)NC[C@@H]1c1ccc(C(=O)O)[nH]c1=O | – | – | – | – | – | – | – | IC50 (Glutamate receptor 4 [8]): 0.06 µM; IC50 [9]: 0.33 µM
O=C(O)CCc1cn([C@H]2CN[C@H](C(=O)O)[C@H]2CC(=O)O)nn1 | – | – | – | – | – | – | > 100 | Ki [11]: > 100 µM; Ki [12]: > 100 µM; Ki (Glutamate NMDA receptor): > 100 µM; Ki [13]: > 100 µM; IC50 (Glutamate receptor 4 [16]): > 100 µM
O=C(O)C[C@@H]1[C@@H](C(=O)O)NC[C@@H]1n1nncc1C(=O)O | 79 | 85 | 79 | – | 66 | 85 | – | Activity (Rattus norvegicus): 80%; Activity [5]: 89%
CC(CCc1cnnn1[C@H]1CN[C@H](C(=O)O)[C@H]1CC(=O)O)C(=O)O (stereo partly drawn) | – | – | – | 0.42 | 102 | 73 | 1.73 | Ratio Ki [17]: 14; Ki [11]: 8.66 µM; Ratio Ki [18]: 14; Ki [12]: 11.7 µM; Ki [13]: 5.9 µM; Ratio Ki [19]: 14
Nc1cccc(-c2cn([C@H]3CN[C@H](C(=O)O)[C@H]3CC(=O)O)nn2)c1 | 97 | 102 | 93 | 3.25 | – | – | – | –
Cc1nc([C@H]2CN[C@H](C(=O)O)[C@H]2CC(=O)O)cs1 | – | – | – | – | – | – | – | IC50 [20]: 0.006 µM
O=C(O)C[C@@H]1[C@@H](C(=O)O)NC[C@@H]1n1ccnn1 | – | – | – | – | – | – | 1.3 | Ki [11]: 2.6 µM; Ki [12]: 3.3 µM; Ki (Glutamate NMDA receptor): > 100 µM; Ki [13]: 0.28 µM; IC50 (Glutamate receptor 4 [16]): 9.5 µM

Continued, in another order:

Activity [1] [%] | Activity [2] [%] | Activity [3] [%] | Ki [4] [µM] | Activity [6] [%] | Activity [7] [%] | IC50 [10] [µM] | Structure (SMILES) | also measured
60 | 76 | 58 | 1.76 | – | – | – | O=C(O)C[C@@H]1[C@@H](C(=O)O)NC[C@@H]1n1nncc1-c1cccc(F)c1 | –
95 | 79 | 81 | – | 92 | 100 | – | NCc1cnnn1[C@H]1CN[C@H](C(=O)O)[C@H]1CC(=O)O | Activity (Rattus norvegicus): 76%; Activity [5]: 85%
99 | 92 | 94 | 11.1 | 87 | 86 | – | O=C(O)C[C@@H]1[C@@H](C(=O)O)NC[C@@H]1n1nncc1Cc1ccccc1 | Activity (Rattus norvegicus): 79%
94 | 97 | 90 | 5.57 | 98 | 98 | 35 | O=C(O)C[C@@H]1[C@@H](C(=O)O)NC[C@@H]1n1nncc1CCc1ccccc1 | –
94 | 76 | 84 | 7.97 | 102 | 86 | 22 | O=C(O)C[C@@H]1[C@@H](C(=O)O)NC[C@@H]1n1nncc1CO | –
